pIC50: −log10 of the molar value.

T1 sequence (Q92633 whole entry): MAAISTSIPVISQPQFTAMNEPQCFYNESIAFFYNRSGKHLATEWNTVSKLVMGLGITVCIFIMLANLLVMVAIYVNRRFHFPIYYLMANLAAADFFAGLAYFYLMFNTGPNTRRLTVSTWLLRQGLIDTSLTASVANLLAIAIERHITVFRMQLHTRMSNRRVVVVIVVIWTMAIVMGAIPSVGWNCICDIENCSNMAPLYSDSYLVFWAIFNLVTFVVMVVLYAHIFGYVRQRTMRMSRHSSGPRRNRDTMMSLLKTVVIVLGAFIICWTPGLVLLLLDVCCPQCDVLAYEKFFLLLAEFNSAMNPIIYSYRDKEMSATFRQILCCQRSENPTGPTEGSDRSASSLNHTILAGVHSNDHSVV

The first experiment has as its system IPF patients.
Assay: not given
The note with it: 26-week clinical trial, IPF patients (Palmer et al.); cited from earlier work.
As to `Cc1noc(-c2ccc(-c3ccc(C4(C(=O)O)CC4)cc3)cc2)c1NC(=O)O[C@H](C)c1ccccc1` [BMS-986020], the “rate of FVC (forced vital capacity) decline” value was “significantly reduce”.

Another experiment deals with human foetal lung fibroblasts.
Assay: not given
The note with it: Tager et al.; cited from earlier work.
For the molecule `Cc1noc(-c2ccc(CSCCC(=O)O)cc2)c1NC(=O)OC(C)c1ccccc1Cl` (stereo not drawn) [Ki16425], the “chemotaxis of human foetal lung fibroblasts induced by BAL from IPF patients” value is “blocked”.

The next experiment relates to UUO mice.
Assay: not given
The note with it: cited from earlier work.
For the molecule `Cc1noc(-c2ccc(CSCCC(=O)O)cc2)c1NC(=O)OC(C)c1ccccc1Cl` (stereo not drawn) [Ki16425], the “development of renal fibrosis, profile compared with LPA1 (-/-) mice” value is given as “closely resembled the profile of LPA1 (−/−) mice”.

The next experiment has as its target T1, human LPA1 (Homo sapiens, UniProt Q92633).
T1 construct: expressed in transfected cells; host or cells: Chinese hamster ovary (CHO) cells
In words: LPA1 functional antagonist assay (calcium flux). In kind it is cell-based. The note with it: CHO cells overexpressing human LPA1; inhibition of calcium flux induced by 10 nM LPA; read-out: hLPA1 IC50. The procedure:
The effectiveness of compounds of the present invention as LPA1 inhibitors can be determined in an LPA1 functional antagonist assay as follows:
Chinese hamster ovary cells overexpressing human LPA1 were plated overnight (15,000 cells/well) in poly-D-lysine coated 384-well microplates (Greiner bio-one, Cat #781946) in DMEM/F12 medium (Gibco, Cat #11039). Following overnight culture, cells were loaded with calcium indicator dye (AAT Bioquest Inc, Cat #34601) for 30 minutes at 37° C. The cells were then equilibrated to room temperature for 30 minutes before the assay. Test compounds solubilized in DMSO were transferred to 384 well non-binding surface plates (Corning, Cat #3575) using the Labcyte Echo acoustic dispense and diluted with assay buffer [1×HBSS with calcium/magnesium (Gibco Cat #14025-092), 20 mM HEPES (Gibco Cat #15630-080) and 0.1% fatty acid free BSA (Sigma Cat #A9205)] to a final concentration of 0.5% DMSO. Diluted compounds were added to the cells by FDSS6000 (Hamamatsu) at final concentrations ranging from 0.08 nM to 5 μM. and were then incubated for 20 min at room temperature at which time LPA (Avanti Polar Lipids Cat #857130C) was added at final concentrations of 10 nM to stimulate the cells. The compound IC50 value was defined as the concentration of test compound which inhibited 50% of the calcium flux induced by LPA alone. IC50 values were determined by fitting data to a 4-parameter logistic equation (GraphPad Prism, San Diego CA).
For orientation: A change in cytosolic calcium serves as a functional read-out for many receptors and channels.
In general, pIC50 refers to the IC50 on a negative log10 scale, so that one unit is a factor of ten. With `Cc1noc(-c2ccc(O[C@@H]3CCO[C@H](C(=O)O)C3)cc2)c1COC(=O)N(C)CCC(C)C` (single isomer, unassigned) [Example 9], the pIC50 was 7.39. Same read-out and setting: to `Cc1noc(-c2ccc(O[C@@H]3COC[C@@H](C(=O)O)C3)cc2)c1COC(=O)N(C)CCC(C)C` (racemic) [Example 3] belongs 6.66; to `Cc1noc(-c2ccc(OC3CC4C(C3)C4C(=O)O)cc2)c1COC(=O)N(C)CC1CCC1` (racemic) [Example 15, (±)-3-(4-(4-((((Cyclobutylmethyl)(methyl)carbamoyl)oxy)methyl)-3-methyl-isoxazol-5-yl)phenoxy)bicyclo[3.1.0]hexane-6-carboxylic acid], 6.25. On to `Cc1noc(-c2ccc(O[C@H]3CCO[C@H](C(=O)O)C3)cc2)c1COC(=O)N(C)C1CCCC1` (racemic) [Example 5, (±)-trans-4-(4-(4-(((cyclopentyl(methyl)carbamoyl)oxy)methyl)-3-methylisoxazol-5-yl)phenoxy)tetrahydro-2H-pyran-2-carboxylic acid], for which the pIC50 was 6.25. Still for that read-out and setting: the value for `Cc1noc(-c2ccc(OC3CCCC4C(C(=O)O)C34)cc2)c1COC(=O)N(C)C1CCCC1` (racemic) [Example 17, (±)-2-(4-(4-(((Cyclopentyl(methyl)carbamoyl)oxy)methyl)-3-methylisoxazol-5-yl)phenoxy) bicyclo [4.1.0]heptane-7-carboxylic acid] was 6.40; that for `Cc1noc(-c2ccc(OC3CCC4C(C(=O)O)C34)cc2)c1COC(=O)N(C)C1CCCC1` (racemic) [Example 14, (±)-2-(4-(4-(((Cyclopentyl(methyl)carbamoyl)oxy)methyl)-3-methylisoxazol-5-yl)phenoxy)bicyclo[3.1.0]hexane-6-carboxylic acid] was 7.32. Same read-out and setting: the value for `Cc1noc(-c2ccc(OC3CC(C(=O)O)CC4CC43)cc2)c1COC(=O)N(C)C1CCCC1` (racemic) [Example 11, (±)-(1R,3R,5R,6R)-5-(4-(4-(((cyclopentyl(methyl)carbamoyl)oxy)methyl)-3-methylisoxazol-5-yl)phenoxy)bicyclo[4.1.0]heptane-3-carboxylic acid] was 7.19; that for `Cc1noc(-c2ccc(O[C@H]3CCO[C@@H](C(=O)O)C3)cc2)c1COC(=O)N(C)CCC(C)C` (racemic) [Example 7] was 6.70; that for `Cc1noc(-c2ccc(O[C@@H]3COC[C@H](C(=O)O)C3)cc2)c1COC(=O)N(C)C1CCCC1` (racemic) [Example 2, (±)-cis-5-(4-(4-(((cyclopentyl(methyl)carbamoyl)oxy)methyl)-3-methyl-isoxazol-5-yl)phenoxy)tetrahydro-2H-pyran-3-carboxylic acid)] was 6.84. In the case of `Cc1noc(-c2ccc(O[C@H]3C[C@H](C(=O)O)C[C@@H]4C[C@@H]43)cc2)c1COC(=O)N(C)C1CCCC1` (racemic) [Example 10, (±)-(1S,3R,5S,6S)-5-(4-(4-(((cyclopentyl(methyl)carbamoyl)oxy)methyl)-3-methyl-isoxazol-5-yl)phenoxy) bicyclo[4.1.0]heptane-3-carboxylic acid], the pIC50 is 6.74. Regarding `CCCCN(C)C(=O)OCc1c(C)noc1-c1ccc(O[C@@H]2C[C@H](C(=O)O)C[C@@H]3C[C@@H]32)cn1` (racemic) [Example 13, (±)-(1S,3R,5R,6S)-5-((6-(4-(((butyl(methyl)carbamoyl)oxy)methyl)-3-methyl-isoxazol-5-yl)pyridin-3-yl)oxy)bicyclo[4.1.0]heptane-3-carboxylic acid], the pIC50 is 7.66. Still for that read-out and setting: the value for `Cc1noc(-c2ccc(O[C@H]3CCO[C@@H](C(=O)O)C3)cc2)c1COC(=O)N(C)C1CCCC1` (racemic) [Example 6, (±)-cis-4-(4-(4-(((cyclopentyl(methyl)carbamoyl)oxy)methyl)-3-methylisoxazol-5-yl)phenoxy)tetrahydro-2H-pyran-2-carboxylic acid] was 6.54.

As to `Cc1noc(-c2ccc(OC3CCCC4C(C(=O)O)C34)cc2)c1COC(=O)N(C)CC1CCC1` (stereo not drawn) [Example 19], the negative logarithm of the IC50 (pIC50) is 5.87. The same measure, in the same setting: the value for `Cc1noc(-c2ccc(O[C@@H]3C[C@H](C(=O)O)C[C@H]4C[C@H]43)cc2)c1COC(=O)N(C)C1CCCC1` (racemic) [Example 12, (±)-(1R,3R,5R,6R)-5-(4-(4-(((cyclopentyl(methyl)carbamoyl)oxy)methyl)-3-methylisoxazol-5-yl)phenoxy)bicyclo[4.1.0]heptane-3-carboxylic acid] was 6.71; that for `Cc1noc(-c2ccc(O[C@@H]3COC[C@H](C(=O)O)C3)cc2)c1COC(=O)N(C)CCC(C)C` [Example 4] was 6.99; that for `Cc1noc(-c2ccc(O[C@H]3COC[C@H](C(=O)O)C3)cc2)c1COC(=O)N(C)C1CCCC1` (racemic) [Example 1, (±)-trans-5-(4-(4-(((cyclopentyl(methyl)carbamoyl)oxy)methyl)-3-methylisoxazol-5-yl)phenoxy)tetrahydro-2H-pyran-3-carboxylic acid)] was 6.85. Still for that read-out and setting: to `Cc1noc(-c2ccc(O[C@H]3CCO[C@H](C(=O)O)C3)cc2)c1COC(=O)N(C)CCC(C)C` [Example 8] belongs 5.96; to `CCCCN(C)C(=O)OCc1c(C)noc1-c1ccc(OC2CC3C(C2)C3C(=O)O)cc1` (stereo not drawn) [Example 16], 6.43. For `CCCCN(C)C(=O)OCc1c(C)noc1-c1ccc(OC2CCCC3C(C(=O)O)C23)cc1` (stereo not drawn) [Example 18], the pIC50 was 6.01.

Regarding `Cc1noc(-c2ccc(OC3CCCC4C(C(=O)O)C34)cc2)c1COC(=O)N(C)CC1CC1` (stereo not drawn) [Example 20], the pIC50 was 5.82.

Another experiment concerns mouse epithelial renal cell line, MCT.
Assay: not given
The note with it: MCT cells, co-treatment with LPA; cited from earlier work.
Regarding `Cc1noc(-c2ccc(CSCCC(=O)O)cc2)c1NC(=O)OC(C)c1ccccc1Cl` (stereo not drawn) [Ki16425], the “LPA-induced expression of CTGF” value is on record as “almost completely suppressed”.

A further experiment deals with nerve-injured mice.
Assay: not given
The note with it: pretreatment, nerve-injured mice (Inoue et al.); cited from earlier work.
With `C[C@@H](N)[C@H]1CC[C@H](C(=O)Nc2ccncc2)CC1` [Example Y-27632], the allodynia and hyperalgesia result is “completely abolished”.

For another experiment, the system named is pancreatic cancer cell lines.
Assay: not given
The note with it: highly peritoneal metastatic pancreatic cancer cell line; cited from earlier work.
As for `Cc1noc(-c2ccc(CSCCC(=O)O)cc2)c1NC(=O)OC(C)c1ccccc1Cl` (stereo not drawn) [Ki16425], the “LPA-induced and ascites-induced invasion activity” value is “blocked”.

Staying with this experiment, now noted: pancreatic cancer cell lines (Yamada et al.); cited from earlier work.
As for `Cc1noc(-c2ccc(CSCCC(=O)O)cc2)c1NC(=O)OC(C)c1ccccc1Cl` (stereo not drawn) [Ki16425], the “in vitro migration in response to LPA and peritoneal fluid (ascites)” value is “effectively blocked”.

Values taken from US12384768B2, “Isoxazole carboxylic acids as LPA antagonists” (BRISTOL-MYERS SQUIBB COMPANY, priority 2019, dated 2025).
